Key:
Experiment in all cases: Microbiological challenge testing in BPW broth, graded subculture counts
Format in all cases: cell-based
[1] = test system: Candida albicans Wild type; settings: C. albicans
Procedure, shortened: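 Wild-type C. albicans grown in TSB with 1% dextrose at 22 °C, then adjusted by turbidity and hemocytometer to a 10^8 CFU/mL challenge confirmed on SABD plates. Challenge added to BPW broth containing 1% dextrose, giving 10^5 to 10^6 CFU/mL at time zero; controls in triplicate. Counts by serial dilution and spread-plating after at least 48 h incubation.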

[2] = test system: Escherichia coli ATCC 25922; settings: E. Coli
Procedure, shortened: (§1)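 TSB + 1% dextrose cultures, 35 ± 2 °C, ≥96 h. Inoculum calibrated by NTU vs plate counts; challenge at 10^5–10^6 CFU/mL final in BPW/1% dextrose with test material. Triplicates (butoxyethanol in duplicate). Spread plates on PCA, ≥48 h, CFU/mL = count × dilution.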

[3] = test system: Streptococcus mutans ATCC 35668
Procedure, shortened: as §1

Structure (SMILES) | Grade ([1]; 2.5% (wt/vol), 3 day) | Grade ([1]; 2.5% (wt/vol), 14 day) | Grade ([1]; 2.5% (wt/vol), 30 day) | Grade ([1]; 5.0% (wt/vol), 3 day) | Grade ([1]; 5.0% (wt/vol), 14 day) | Grade ([1]; 5.0% (wt/vol), 30 day) | Grade ([2]; 2.5% (wt/vol), 3 day) | Grade ([2]; 2.5% (wt/vol), 14 day) | Grade ([2]; 2.5% (wt/vol), 30 day) | Grade ([2]; 5.0% (wt/vol), 3 day) | Grade ([2]; 5.0% (wt/vol), 14 day) | Grade ([2]; 5.0% (wt/vol), 30 day) | S. mutans growth grade, 3 day ([3]; 2.5% weight/volume) | S. mutans growth grade, 13 day ([3]; 2.5% weight/volume) | S. mutans growth grade, 30 day ([3]; 2.5% weight/volume) | S. mutans growth grade, 3 day ([3]; 5.0% weight/volume) | S. mutans growth grade, 13 day ([3]; 5.0% weight/volume) | S. mutans growth grade, 30 day ([3]; 5.0% weight/volume) | further results
CCCCOCCO [EB, 2-butoxyethanol] | 4 (1000 to 10,000 colonies countable (thus 10,000 CFU/mL to 100,000 CFU/mL)) | 4 (1000 to 10,000 colonies countable (thus 10,000 CFU/mL to 100,000 CFU/mL)) | 4 (1000 to 10,000 colonies countable (thus 10,000 CFU/mL to 100,000 CFU/mL)) | 2 (52 to 100 colonies counted (thus 520 to 1000 CFU/mL)) | 0 | 0 | 4 (1000 to 10,000 colonies countable (thus 10,000 CFU/mL to 100,000 CFU/mL)) | 4 (1000 to 10,000 colonies countable (thus 10,000 CFU/mL to 100,000 CFU/mL)) | 4 (1000 to 10,000 colonies countable (thus 10,000 CFU/mL to 100,000 CFU/mL)) | 1 (0 to 51 colonies counted (thus 10 to 510 CFU/mL based on 0.1-mL sample)) | 0 | 0 | 4 (1000 to 10,000 colonies countable (thus 10,000 CFU/mL to 100,000 CFU/mL)) | 4 (1000 to 10,000 colonies countable (thus 10,000 CFU/mL to 100,000 CFU/mL)) | 4 (1000 to 10,000 colonies countable (thus 10,000 CFU/mL to 100,000 CFU/mL)) | 0 | 0 | 0 | 
OCC1CCCCC1CO (stereo not drawn) [1,2-CHDM, 1,2-cyclohexanedimethanol] | 0 | 0 | 0 | 0 | 0 | 0 | 2 (52 to 100 colonies counted (thus 520 to 1000 CFU/mL)) | 0 | 0 | 0 | 0 | 0 | 1 (0 to 51 colonies counted (thus 10 to 510 CFU/mL based on 0.1-mL sample)) | 0 | 0 | 0 | 0 | 0 | Grade ([1]; 0.5% (wt/vol), 3 day): 4 (1000 to 10,000 colonies countable (thus 10,000 CFU/mL to 100,000 CFU/mL)); Grade ([1]; 0.5% (wt/vol), 14 day): 4 (1000 to 10,000 colonies countable (thus 10,000 CFU/mL to 100,000 CFU/mL)); Grade ([1]; 0.5% (wt/vol), 30 day): 4 (1000 to 10,000 colonies countable (thus 10,000 CFU/mL to 100,000 CFU/mL)); Grade ([1]; 1.25% (wt/vol), 3 day): 4 (1000 to 10,000 colonies countable (thus 10,000 CFU/mL to 100,000 CFU/mL)); Grade ([1]; 1.25% (wt/vol), 14 day): 4 (1000 to 10,000 colonies countable (thus 10,000 CFU/mL to 100,000 CFU/mL)); Grade ([1]; 1.25% (wt/vol), 30 day): 4 (1000 to 10,000 colonies countable (thus 10,000 CFU/mL to 100,000 CFU/mL)); Grade ([2]; 0.5% (wt/vol), 3 day): 5 (More than 10,000 colonies estimated (thus more than 100,000 CFU/mL)); Grade ([2]; 0.5% (wt/vol), 14 day): 4 (1000 to 10,000 colonies countable (thus 10,000 CFU/mL to 100,000 CFU/mL)); Grade ([2]; 0.5% (wt/vol), 30 day): 4 (1000 to 10,000 colonies countable (thus 10,000 CFU/mL to 100,000 CFU/mL)); Grade ([2]; 1.25% (wt/vol), 3 day): 4 (1000 to 10,000 colonies countable (thus 10,000 CFU/mL to 100,000 CFU/mL)); Grade ([2]; 1.25% (wt/vol), 14 day): 2 (52 to 100 colonies counted (thus 520 to 1000 CFU/mL)); Grade ([2]; 1.25% (wt/vol), 30 day): 3 (100 to 1000 colonies (thus 1000 to 10,000 CFU/mL)); S. mutans growth grade, 3 day ([3]; 0.5% weight/volume): 4 (1000 to 10,000 colonies countable (thus 10,000 CFU/mL to 100,000 CFU/mL)); S. mutans growth grade, 13 day ([3]; 0.5% weight/volume): 4 (1000 to 10,000 colonies countable (thus 10,000 CFU/mL to 100,000 CFU/mL)); S. mutans growth grade, 30 day ([3]; 0.5% weight/volume): 4 (1000 to 10,000 colonies countable (thus 10,000 CFU/mL to 100,000 CFU/mL)); S. mutans growth grade, 3 day ([3]; 1.25% weight/volume): 2 (52 to 100 colonies counted (thus 520 to 1000 CFU/mL)); S. mutans growth grade, 13 day ([3]; 1.25% weight/volume): 0; S. mutans growth grade, 30 day ([3]; 1.25% weight/volume): 0

Reference: patent publication US20100160454A1, “ANTIMICROBIAL AGENTS, COMPOSITIONS AND PRODUCTS CONTAINING THE SAME, AND METHODS OF USING THE COMPOSITIONS AND PRODUCTS” (Eastman Chemical Company, priority 2008, published 2010)
